Nine compounds from ChEMBL document CHEMBL1140963, “Naphthoquinoidal [1,2,3]-triazole, a new structural moiety active against Trypanosoma cruzi” (Eur J Med Chem, 2008) can be followed below.

The structures appear in SMILES notation.

What is called IC50 is the concentration that gives 50% inhibition. Low readings indicate higher potency, high ones lower potency.

For the experiment, the system named is Trypanosoma cruzi. In words: Antitrypanosomal activity against Trypanosoma cruzi Y trypomastigotes after 1 day. Particulars: 24 h. It is filed as functional, organism-based.
Take `O=C(Cn1ccnc1[N+](=O)[O-])NCc1ccccc1` [BENZNIDAZOLE]: half-maximal inhibition (IC50) required 104 µM.

The compound `CC(C)=CC1=C(O)C(=O)c2ccccc2C1=O` came in with a half-maximal inhibitory concentration (IC50) of 1280 µM.

As for `CC1(C)OC2=C(C(=O)C(=O)c3ccccc32)C1n1cc(CO)nn1` (centres undefined), the half-inhibitory concentration (IC50) came to 348 µM.

Consider `CC1(C)OC2=C(C(=O)C(=O)c3ccccc32)C1n1cc(COC2CCCCO2)nn1` (centres undefined), for which the concentration for half-maximal inhibition (IC50) was determined as 257 µM.

Compound `CC(C)(O)c1cn(C2C3=C(OC2(C)C)c2ccccc2C(=O)C3=O)nn1` (centres undefined) returned a half-maximal inhibitory concentration (IC50) of 152 µM.

As for `CC1(C)OC2=C(C(=O)C(=O)c3ccccc32)C1n1cc(-c2ccccc2)nn1` (centres undefined), the half-maximal inhibitory concentration (IC50) is 17.3 µM.

`CC1(C)OC2=C(C(=O)C(=O)c3ccccc32)C1N=[N+]=[N-]` (centres undefined) displayed a half-inhibitory concentration (IC50) of 50.2 µM.

`CN(C)c1ccc(C(=C2C=CC(=[N+](C)C)C=C2)c2ccc(N(C)C)cc2)cc1` [GENTIAN VIOLET] had a half-inhibitory concentration (IC50) of 536 µM.

`CC1(C)OC2=C(C(=O)C(=O)c3ccccc32)C1n1cc(C2(O)CCCCC2)nn1` (centres undefined) registered an IC50 of 57.8 µM.
